What was measured:
ESET/SETDB1 = assay: Screening with Tet-inducible ESET/SETDB1 cell line (dot blot analysis, FIG. 1); format: cell-based; settings: among 107 selected library compounds
Procedure: In order to find compounds that inhibit the ESET/SETDB1 enzyme, 107 compounds expected to inhibit the activity of ESET/SETDB1 were selected through structural modeling from a compound library. These compounds were screened using a Tet-inducible ESET cell line.
Tet-Inducible ESET (H3K9 Specific Histone Methyltransferase) Cell Line (Tetracycline-Inducible ESET Cells):
A Tet-inducible ESET cell line was prepared using the T-REx™ system available from Invitrogen. The myc-ESET gene was subcloned into pcDNA5/TO and transfected into somatic mother cells (STHdh^Q7/7, striatal cells) using pcDNA6/TR.
Confocal Microscopy for Determination of H3K9me3 (Confocal Microscopy for Identification of Change in Heterochromatin Condensation by H3K9Me3 and Drug)
An indirect fluorescence labeling method using fluorescein-conjugated secondary antibodies was used. After fixing ESET inducible cells with 4% PFA and incubating with H3K9me3 (rabbit antibody; dilution, 1:200; Millipore) primary antibodies, the cells were incubated with fluorescence-conjugated secondary antibodies (Alexa 594; dilution, 1:400; Thermo). Images were obtained using a confocal microscope (IX2-DSU, Olympus, Tokyo, Japan).
Among those compounds, #7 compound was a quinolone derivative, which is selected as a hit-compound through the instant experiment. The #7 compound in FIG. 1 is Compound 8 in the present invention.

[1] = test system: trimethylation of H3K9 (H3K9me3); assay: Change in H3K9 trimethylation in brain of YAC128 mouse; format: in vivo; settings: striatal brain tissue of YAC128 mouse, anti-H3K9me3 blot, FIGS. 4A and 4B
Procedure: After adding the striatal brain tissue of YAC128 mouse to 1 mL of PBS containing 0.4 mM sodium butyrate, 5% Triton X-100, 3 mM DTT, 1 mM sodium orthovanadate, 5 mM sodium fluoride, 3 mM PMSF, 0.5 mg/mL leupeptin and 10 mg/mL aprotinin, a cell homogenate was obtained using a Downce crusher. After centrifugation at 3000 rpm for 10 minutes, the supernatant was removed. The precipitating cell pellet was washed twice with a 5% Triton buffer and histone was extracted with 0.2 M HCl. After neutralizing the histone-containing solution to neutral pH with 1 N NaOH, proteins were quantitated and separated by 15% SDS-PAGE. The change in trimethylation of H3K9 (H3K9me3) was investigated using anti-H3K9me3 (rabbit antibody; dilution, 1:1000; Millipore).

ESET/SETDB1 enzyme = target: T1, ESET/SETDB1 enzyme (Homo sapiens, UniProt Q15047); assay: SETDB1 chemiluminescence enzyme assay (BPS Bioscience kit); format: biochemical; settings: test compound 1-100 μM, FIG. 2
T1 construct: purchased BPS Bioscience
Procedure: In order to investigate the inhibitory effect against the activity of the ESET/SETDB1 enzyme of the compounds according to the present disclosure, SETDB1 chemiluminescence assay was conducted for the compound 8. The SETDB1 assay was performed using the SetDB1 chemiluminescent assay kit (BPS Bioscience) according to the manufacturer's protocol. S-Adenosylmethionine (SAM, stock concentration 20 μM) was used as a […]. First, SAM and the test compounds were prepared to final concentrations of 1 μM, 3 μM, 10 μM, 30 μM and 100 μM by diluting with DMSO (final volume 1 μL). 150 μL of a TBST buffer (1X TBS, pH 8.0, containing 0.05% Tween-20) was added to each well of a 96-well plate and hydrated at room temperature for 15 minutes. A master mix containing an assay buffer, the compound 8 and the SETDB1 enzyme was prepared.
25 μL (7.5 μL 4×HMT buffer+2.5 μL 20 μM SAM+15 μL H2O) of the prepared master mix was added to each well of the plate. Then, 1 μL of the test compound (1 μM, 3 μM, 10 μM, 30 μM or 100 μM) and 20 μL of the diluted SetDB1 enzyme were added sequentially. […] Chemiluminescence resulting from the reaction between the HRP-conjugated secondary antibody and the added HRP substrate was measured using a chemiluminescence reader (Molecular Devices microplate reader) and the result was analyzed using the SoftMax Pro software.

transgenic YAC128 mouse = assay: Rotarod performance test in YAC128 animal model; format: in vivo; settings: 15-month-old male YAC128 mice, 0.636 mg/kg for 3 weeks, 5 days a week, 5 rpm, compared to the vehicle, FIG. 3
Procedure: The effect of the compound according to the present disclosure on motor ability was evaluated using the transgenic YAC128 mouse which expresses the human Huntingtin gene containing 128 CAG repeat sequences as a model of Huntington's disease (HD) (Menalled L et al., 2009, Neurobiol Dis 35(3):319-36). The Huntington's disease model mouse is reported to show decline in motor ability, which is the typical pathological symptom of Huntington's disease, from 6 around months after birth, progress of neurodegeneration from 9 months and aggregation of mutant Huntington's genes in striatal neurons from around 18 months.
Rotarod performance test was conducted using 15-month-old male YAC128 mice. The drug was administered (0.636 mg/kg) for 3 weeks, 5 days a week, and the rotarod test was performed on the 5th day of each week.
The mouse was placed on a rotating rod (4 cm in diameter) and riding time was measured. The experiment was performed 4 times on the same day and 60 seconds was given to each mouse. The rotarod rotation speed was set to 5 rpm. The period of time until the mouse fell to the ground was measured. When the mouse remained longer than 60 seconds on the rod, the riding time was recorded as 60 seconds. The recorded time was statistically analyzed and was used as an indicator of the motor ability and balance of the mouse.

In the case of `C=CCNc1cccc2nc(N3CCCCC3)ccc12` [Compound 4, 2-(piperidin-1-yl)-N-allylquinolin-5-amine], the “inhibitory effect against ESET/SETDB1” value (ESET/SETDB1) is reported as “significant inhibitory effect”.

With `C=CCOc1cccc2nc(N3CCCC3)ccc12` [Compound 8, 5-allyloxy-2-(pyrrolidin-1-yl)quinoline] the “intensity of trimethylated H3K9” value [1] was “remarkably decreased”, the “trimethylation of H3K9 (H3K9me3)” value (ESET/SETDB1 enzyme) was “remarkably decreased” and the “riding time on the rod” value (transgenic YAC128 mouse) was “remarkably increased”. The “inhibitory effect against ESET/SETDB1” value (ESET/SETDB1) was “significant inhibitory effect”.

For `C=CCOc1cccc2nc(Nc3ccccc3)ccc12` [Compound 11, 5-allyloxy-N-phenylquinolin-2-amine], the “inhibitory effect against ESET/SETDB1” value (ESET/SETDB1) was “significant inhibitory effect”.

Reference: patent publication US20170354650A1, “QUINOLINE DERIVATIVES FOR INHIBITING HISTONE METHYLTRANSFERASES AND USE THEREOF” (KOREA INSTITUTE OF SCIENCE AND TECHNOLOGY, priority 2016, published 2017)
